Data published in patent publication US11053205B2, “Phenazine derivatives as antimicrobial agents” (University of Florida Research Foundation, Incorporated, priority 2017, dated 2021).
Values after ≈ are worked out from the molar mass of the structure shown. Like-named read-outs stand apart in the source and are kept apart here. Marks after values point to notes of the source that are not given here.

How the values were obtained:
MRSE 35984 biofilms [1] = assay: Live/Dead staining of biofilms; type: cell-based, Staphylococcus epidermidis; details: 0.1, 5, and 10 μM, 24 hours
Protocol: (§1) A mid-log culture of MRSE 35894 was diluted 1:1,000-fold and 500 μL was transferred to each compartment of a 4 compartment CELLview dish (Greiner Bio-One 627871). The dish was then incubated for 24 hours at 37° C. After this time, the cultures were removed and the plate was washed with 0.9% saline. The dish was then treated with the compounds in fresh media at various concentrations. DMSO was used as the negative control in this assay. The dish was incubated with the compound for 24 hours at 37° C. After this time, the cultures were removed and the dish was washed with 0.9% saline for 2 minutes. Saline was then removed and 500 μL of the stain (Live/Dead BacLight Viability Kit, Invitrogen) were added for 15 minutes and left in the dark. After this time, the stain was removed and the dish was washed twice with 0.9% saline. Then the dish was fixed with 500 μL 4% paraformaldehyde in PBS for 30 minutes. Images of remaining MRSE biofilms were then taken with a fluorescence microscope. All data were analyzed using Image J software from three independent experiments.
Following biofilm eradication investigations in CBD assays, lead HP 61A was tested against biofilms of MRSE 35984 in live/dead staining experiments (FIG. 30B). After a 24-hour biofilm establishment, HP 61A was added at 0.1, 5, and 10 μM then left to incubate against MRSE 35984 biofilms for an additional 24 hours at 37° C.

MRSA BAA-1707 [2] = assay: MIC, broth microdilution (CLSI); details: 16 to 18 hours at 37° C.; 0.10 = lowest concentration tested
MRSE 35984 = assay: MIC, broth microdilution (CLSI); details: 16 to 18 hours at 37° C.
VRE 700221 = assay: MIC, broth microdilution (CLSI); details: for VRE 700221 MIC: 16 to 18 hours at 37° C.; for MIC: Enterococcus, VRE
MRSA BAA-1707 biofilms = assay: Calgary Biofilm Device (CBD) assay, MBC/MBEC; details: for MRSA BAA-1707 MBEC: biofilm eradication
HeLa cells [3] = system: HeLa cells
MRSA-1707 biofilms [4] = assay: CBD pulse experiments (two sequential 24 hour treatments); type: cell-based, Staphylococcus aureus; details: two sequential 24 hour compound treatments
VRE 700221 biofilms = assay: Calgary Biofilm Device (CBD) assay, MBC/MBEC; details: for VRE 700221 MBEC: biofilm eradication
[5] = system: M. tuberculosis H37Ra (ATCC 25177); assay: MIC assay for Mycobacterium tuberculosis; type: cell-based; details: Mycobacterium tuberculosis, 168 h; seven days at 37° C.; read-out: MtB H37Ra MIC
Protocol: (§2) The culture was then diluted with fresh medium until an OD600 of 0.01 was reached. […] The final DMSO concentration was maintained at 0.5%. […] Three rows were reserved for each compound. […] OD600 absorbance was recorded using SPECTRAMAX M5 (Molecular Devices). Data obtained from three independent experiments were analyzed using Excel.
as §2, with “SpectraMax” for “SPECTRAMAX”

[6] = LDH release assay for HeLa cytotoxicity; details: human, HeLa cells
MRSA BAA-1707 [7] = assay: Macromolecular synthesis inhibition assay; type: cell-based, Staphylococcus aureus
Protocol: Macromolecular synthesis experiments were carried out in methicillin-resistant Staphylococcus aureus BAA-1707. An overnight culture (100 μL) of S. aureus BAA-1707 was sub-cultured into 10 mL of fresh TSBG media, which was allowed to grow to exponential phase (OD600=0.2−0.3) before transferring 500 μL to each well in a 24 well-plate. The test compounds and vehicle control (DMSO) were added to achieve the desired concentrations relative to their MIC values against S. aureus BAA-1707. Treated cultures were then incubated at 37° C. for 30 minutes before radioactive precursors for DNA ([^3H] thymidine (0.5 μCi)), RNA ([^3H] uridine (0.5 μCi)) and protein ([^3H] leucine (1 μCi)) were added. […] DMSO served as the negative control. DNA and RNA radiolabeled cultures were then incubated in 37° C. for 15 minutes before being stopped by adding 60 μL of cold 5% trichloroacetic acid (TCA). The protein synthesis experiment was stopped after 40 minutes by adding 60 μL cold TCA. These mixtures were then incubated at 2° C. for at least 30 minutes before the contents of the plates were transferred onto glass microfiber filters (24 mm) and washed 5 times with 1 mL of 5% TCA. The filters are allowed to dry overnight before 3.5 mL of the scintillation fluid was added to the scintillation vials containing the filters and the radiation counts were measured using liquid scintillation LS 6500.
For these experiments, MRSA-1707 cultures were treated with [^3H]-thymidine (DNA biosynthesis), [^3H]-uridine (RNA biosynthesis) and [^3H]-leucine (protein biosynthesis) in the presence of HP 1 and antibiotic controls (4-16×MIC).

human red blood cells [8] = details: human, 1 h, 200 μM, pH 7.2
MRSA-1707 biofilms [9] = assay: Live/Dead staining of biofilms; type: cell-based, Staphylococcus aureus; details: 0.1, 1 and 5 μM, 24 hours
Protocol: as §1, with “To support the CBD assay findings, LIVE/DEAD experiments were performed with potent Compound 27 (FIG. 7). A mid-log” for “A mid-log”, “culture of MRSA-2 was diluted” for “culture of MRSE 35894 was diluted”, “4 compartment […] dish (Greiner” for “4 compartment CELLview dish (Greiner”, “stain was removed, and the” for “stain was removed and the”, “of remaining MRSA-2 biofilms were” for “of remaining MRSE biofilms were”, “Image J software.” for “Image J software from three independent experiments.”
HP 1-17 was tested against MRSA-1707 biofilms in live/dead staining experiments. […] After this time, images of the treated and untreated MRSA-1707 biofilms were obtained using fluorescence microscopy (FIG. 20).

MRSA-1 = assay: MIC, broth microdilution (CLSI); details: Staphylococcus aureus, MRSA, read-out: MRSA-1 MIC
UV-Vis metal(II) binding = type: physicochemical; details: kinetics of UV-Vis experiments
Protocol: Spectral scanning was performed from 200 to 800 nm in 2 nm increments.

[10] = system: MRSA, MRSE and VRE biofilms; assay: CBD assays against MRSA, MRSE, and VRE biofilms (all strains); details: strains not given
MRSA BAA-1707 [11] = assay: Metal(II)-cation co-treatment MIC assay; type: cell-based; details: Staphylococcus aureus; copper(II) at 200 μM; read-out: MIC w/ Cu2+
HeLa cells [12] = assay: LDH release assay for HeLa cytotoxicity
S. epi 12228 = assay: MIC, broth microdilution (CLSI); details: Staphylococcus epidermidis, 12228, read-out: S. epi 12228 MIC
MRSA-2 biofilms = assay: Calgary Biofilm Device (CBD) assay, MBC/MBEC
MRSA BAA-44 biofilms = assay: Calgary Biofilm Device (CBD) assay, MBC/MBEC; details: biofilm eradication
human red blood cells [13] = assay: Hemolysis assay with red blood cells; details: 1 hour at 37° C.
MRSE 35984 biofilms [14] = assay: Calgary Biofilm Device (CBD) assay, MBC/MBEC; details: Staphylococcus epidermidis, MRSE, read-out: MRSE 35984 MBC

For Oc1c(Br)cc(Br)c2nc3cc(Cl)ccc3nc12 [61A], the “biofilm eradication and clearance (live/dead staining)” value (MRSE 35984 biofilms [1]) was “highly potent eradication and clearance of MRSE 35984 biofilms”, the “MRSA BAA-1707 MIC” value (MRSA BAA-1707 [2]) was 0.038 µM and the “MRSE 35984 MIC” value (MRSE 35984) was 0.1 µM. For the same molecule, the “VRE 700221 MIC” value (VRE 700221) was 0.39 µM, the “MRSA BAA-1707 MBEC” value (MRSA BAA-1707 biofilms; CBD) was 4.69 µM and the IC50 (HeLa cells [3]) was > 100 µM.

For CCCCCCCCCCCCCCCC[N+](C)(C)Cc1ccccc1.[Cl-] [BAC-16, reference compound], the “MRSA BAA-1707 MIC” value (MRSA BAA-1707 [2]) was 1.56 µM, the “MRSE 35984 MIC” value (MRSE 35984) was 1.56 µM and the “VRE 700221 MIC” value (VRE 700221) was 3.13 µM. For the same molecule, the “MRSA BAA-1707 MBEC” value (MRSA BAA-1707 biofilms; CBD) was 15.6 µM, the “MRSA BAA-1707 MBC” value (MRSA BAA-1707 biofilms; CBD, planktonic killing) was 31.3 µM and the “MBEC (pulse treatment)” value (MRSA-1707 biofilms [4]) was 25 µM. The “VRE 700221 MBEC” value (VRE 700221 biofilms; CBD) was 3.0 µM and the “VRE 700221 MBC” value (VRE 700221 biofilms; CBD, planktonic killing) was 5.9 µM.

With Oc1c(Br)cc(Br)c2nc3ccccc3nc12 [HP 1, 2,4-dibromophenazin-1-ol] the MIC [5] was 25 µM (≈ 8.85 µg/mL), the IC50 at 24 h [6] was 100 µM and the “RNA biosynthesis inhibition ([3H]-uridine)” value (MRSA BAA-1707 [7]; at 4×MIC) was “inhibits both RNA and protein biosynthesis”. For the same molecule, the “protein biosynthesis inhibition ([3H]-leucine)” value (MRSA BAA-1707 [7]; at 4×MIC) was “inhibits both RNA and protein biosynthesis”, the “DNA biosynthesis inhibition ([3H]-thymidine)” value (MRSA BAA-1707 [7]; at 8×MIC) was “does not inhibit DNA biosynthesis” and the “Hemolysis at 200 μM” value (human red blood cells [8]) was ≤1%.

In the case of Cc1cccc2nc3c(O)c(Br)cc(Br)c3nc12 [HP 1-17], the MIC [5] is reported as 25 µM (≈ 9.2 µg/mL), the “biofilm eradication and clearance (live/dead staining)” value (MRSA-1707 biofilms [9]) is reported as “potent biofilm eradication and clearance response” and the MIC (MRSA-1) is reported as 0.1 µM (≈ 0.0368 µg/mL). The “rate of copper(II) chelation” value (UV-Vis metal(II) binding) was “faster rate than HP 1” and the “Hemolysis at 200 μM” value (human red blood cells [8]) was 6.7%.

With CCc1cccc2nc3c(O)c(Br)cc(Br)c3nc12 [HP 1-18] the MIC [5] was 25 µM (≈ 9.55 µg/mL), the “MRSA BAA-1707 MIC” value (MRSA BAA-1707 [2]) was 0.10^c μM and the “MRSE 35984 MIC” value (MRSE 35984) was 0.10^c μM. The MIC (VRE 700221; read-out: VRE 700221 MIC, 16 to 18 hours at 37° C.) was 0.15 to 1.56 µM (≈ 0.0573 to 0.596 µg/mL), the MBEC [10] was 0.59 to 2.35 µM and the “Hemolysis at 200 μM” value (human red blood cells [8]) was 1.7%.

Cc1ccc2nc3c(Br)cc(Br)c(O)c3nc2c1 [HP 1-20] showed a melting point of 213 to 215 °C.

For Oc1c(Br)cc(Br)c2nc3c(Cl)cccc3nc12 [HP 1-21], the MIC [5] was 50 µM (≈ 19.4 µg/mL), the MIC (MRSA BAA-1707 [11]) was 6.25 µM and the “rate of copper(II) chelation” value (UV-Vis metal(II) binding) was “faster rate than HP 1”. The “Hemolysis at 200 μM” value (human red blood cells [8]) was ≤1%.

For Oc1c(Br)cc(Br)c2nc3c(Br)cccc3nc12 [HP 1-23], the MIC [5] was 25 µM (≈ 10.8 µg/mL), the “selectivity index (HeLa IC50 to MRSA BAA-1707 MIC)” value (HeLa cells [12]) was > 2,000 fold and the IC50 at 24 h [6] was > 100 µM. The “Hemolysis at 200 μM” value (human red blood cells [8]) was 5.1%.

With COCCOCCOCCOCCOC(=O)Oc1c(Br)cc(Br)c2nc3c(C)cccc3nc12 [HP 1-25] the MIC [5] was 12.5 µM (≈ 7.53 µg/mL), the MIC (S. epi 12228) was 0.1 µM (≈ 0.0602 µg/mL) and the “Hemolysis at 200 μM” value (human red blood cells [8]) was ≤1%. The “HeLa cell cytotoxicity at 100 μM” value (HeLa cells [3]) was “no HeLa cell cytotoxicity”.

In the case of CN[C@H](CC(C)C)C(=O)N[C@H]1C(=O)N[C@@H](CC(N)=O)C(=O)N[C@H]2C(=O)N[C@H]3C(=O)N[C@H](C(=O)N[C@H](C(=O)O)c4cc(O)cc(O)c4-c4cc3ccc4O)[C@H](O)c3ccc(c(Cl)c3)Oc3cc2cc(c3O[C@@H]2O[C@H](CO)[C@@H](O)[C@H](O)[C@H]2O[C@H]2C[C@](C)(N)[C@H](O)[C@H](C)O2)Oc2ccc(cc2Cl)[C@H]1O [vancomycin, reference compound], the “MRSA-2 MBEC” value (MRSA-2 biofilms; CBD, biofilm eradication) is reported as > 2000 µM, the MBC (MRSA-2 biofilms; Staphylococcus aureus, MRSA, read-out: MRSA-2 MBC) is reported as 3 µM (≈ 4.35 µg/mL) and the MIC (S. epi 12228) is reported as 1.17 µM (≈ 1.7 µg/mL). The MIC (VRE 700221; read-out: VRE 700221 MIC) was > 100 µM, the “MRSA BAA-44 MBEC” value (MRSA BAA-44 biofilms) was > 2000 µM and the MBC (MRSA BAA-1707 biofilms; Staphylococcus aureus, read-out: MRSA BAA-1707 MBC) was 3.9 µM (≈ 5.65 µg/mL). The “biofilm eradication activities against MRSA biofilms” value (MRSA BAA-1707 biofilms; at 2,000 μM (highest concentration tested)) was “no biofilm eradication activities”, the “Hemolysis at 200 μM” value (human red blood cells [13]) was ≤1% and the “VRE 700221 MBEC” value (VRE 700221 biofilms; CBD) was 150 µM. For the same molecule, the MBC (VRE 700221 biofilms; Enterococcus, VRE, read-out: VRE 700221 MBC) was > 200 µM and the MBC (MRSE 35984 biofilms [14]) was 3 µM (≈ 4.35 µg/mL).
